Consider four compounds from ChEMBL document CHEMBL1142122, “Extending the record of meroditerpenes from Cacospongia marine sponges” (2007).

One may read the MIC as the lowest concentration found to suppress growth. A low value points to inhibition by little substance.

What all share (assay type): functional
Assay [1] relates to Bacillus subtilis. The experiment in a line: Antimicrobial activity against Bacillus subtilis.
Assay [2] has as its system Escherichia coli. Nature of the assay: Antimicrobial activity against Escherichia coli.
The subject of assay [3] is Staphylococcus epidermidis. The experiment in a line: Antimicrobial activity against Staphylococcus epidermidis.

The structures appear in SMILES notation. Converted amounts (≈) assume the structure as drawn.

On to `C=C(C)CCC[C@@]1(C)CCC[C@@]2(C)[C@H](Cc3cc(C(=O)O)ccc3O)C(=C)CC[C@H]12`, for which the minimum inhibitory concentration (MIC) is over 400 µg/mL in assay [1], over 400 µg/mL in assay [2] and 2.5 µg/mL (≈ 6.09 µM) in assay [3].

Turning to `CC1=C(CC/C(C)=C/CC/C(C)=C/Cc2cc(C(=O)O)ccc2O)C(C)(C)CCC1` [CACOSPONGIN D], the MIC is over 400 µg/mL in assay [1], over 400 µg/mL in assay [2] and 20 µg/mL (≈ 48.7 µM) in assay [3].

Turning to `CC1=C(CC/C(C)=C/CC/C(C)=C/Cc2cc(O)ccc2O)C(C)(C)CCC1` [JASPAQUINOL], the MIC in assay [1] is over 400 µg/mL; in assay [2], over 400 µg/mL; in assay [3], 5 µg/mL (≈ 13.1 µM).

Consider `CC(C)=CCC[C@@]1(C)CCC[C@]2(C)[C@@H](Cc3cc(C(=O)O)ccc3O)C(C)=CC[C@@H]12` [JASPIC ACID], for which the minimal inhibitory concentration (MIC) in assay [1] is over 400 µg/mL; in assay [2] it was over 400 µg/mL; in assay [3], 2.5 µg/mL (≈ 6.09 µM).
